The values below come from patent USRE38825E1, “Glyphosate tolerant plants” (Monsanto Technology LLC, priority 1990, dated 2005).

The target in this experiment is glyphosate oxidoreductase from LBAA, wild type (w1w2w3: SER84, LYS153, HIS334), SEQ ID NO:5 (Ochrobactrum sp. G-1, UniProt D2KI28, S2A). As to the kind of experiment: Kinetic analysis of glyphosate oxidoreductase, wild type (crude E. coli lysate, glyoxylate-DNPH assay). The class given is biochemical, bacterial isolate LBAA (Pseudomonas strain LBAA). The text has this:
An alternate method for the assay of glyphosate oxidoreductase involves reaction of the sample with 2,4-dinitrophenylhydrazine and determination of the amount of the glyoxylate-2,4-dinitrophenylhydrazone by HPLC analysis as described in detail in a later section.
Prior examples of engineered herbicide resistance by enzymatic inactivation of the herbicide have utilized enzymes with an ability to bind and metabilize the herbicides much more efficiently than glyphosate oxidoreductase metabolizes glyphosate.
The mutagenesis procedure used was that of Mn++-poisoned PCR and the template was a linearized glyphosate oxidoreductase gene plasmid containing the synthetic glyphosate oxidoreductase gene (SEQ ID NO:8). The oligonucleotide primers used were homologous to regions in the vector and flanking the glyphosate oxidoreductase gene. The PCR conditions employed were as follows: 1 minute at 94° C., 2 minutes at 55° C., and 3 minutes at 72° C. and with 35 cycles. A 5:1 ratio of dCTP+dGTP+TTP to dATP was used. The reactions contained MnCl2 at 125, 250, 375, or 500 μM. After the reaction, the amplified product was recloned into a vector containing a weak E. coli promoter. This vector was a pBR327 derivative containing the araBAD promoter and suitable cloning sites. One hundred colonies from this cloning step were then screened in E. coli GB993 for improved glyphosate tolerance and utilization phenotypes in media composed of MOPS minimal medium with glyphosate and Pi or with glyphosate alone, respectively. Growth rates were determined by measuring A550 over a 96 hour period. […] The glyphosate oxidoreductase gene was recloned into the expression vector portion and this phenotype verified. All kinetic analysis was performed on crude E. coli lysates. Putative glyphosate oxidoreductase variant proteins were overexpressed after subcloning the NcoI/HindIII variant glyphosate oxidoreductase gene into PrecA-gene10L expression vector. For overexpression in PrecA-gene10L constructs, GB993 cells containing the vector were induced at a Klett=110-120 in M9 minimal medium with 50 μg/ml nalidixic acid and allowed to grow for 2.5 hours at 37° C. with vigorous shaking. Cells were harvested by centrifugation at 4000 g, 5 minutes at 4° C., and resuspend in 100 mM Tris-HCl, pH 7.1, 1 mM EDTA, 35 mM KCl, 20% glycerol, and 1 mM benzamidine at 3 ml/g cell pellet. Lysates were prepared by breaking the cells in a French press, twice, at 1000 psi. […] Protein concentrations were determined using the Bio-Rad protein dye-binding assay. […] Ten minutes was determined to be the optimal time for the enzyme assay using 10 μg lysate. […] Enzyme activity was determined from the amount of glyoxylate-DNPH adduct formed by measuring A520 against a standard of glyoxylate. […]

Under “domain switch experiment, wt (w1w2w3), substrate glyphosate”, `O=C(O)CNCP(=O)(O)O` [glyphosate, N-phosphonomethyl-glycine] yielded a VmKm of 0.022. Moreover, where the note is “read-out: K for glyphosate, general statement on the glyphosate oxidoreductase enzyme”, the Km lay within 20 to 30 mM. The “VmKm (Glyp)” value (wild type) is “.03”. Also, the “app Vm (Glyp)” value (wild type, pH 7.4, 30° C., enzyme amount by immunoblot) is 0.8 U/mg.
